Experimental data published in patent US7205382B2, “Peptides, the production and use thereof for binding immunoglobulins” (Fresenius Medical Care Affina GmbH, priority 2000, dated 2007).
Bridge positions count the residues as written; N and C are the ends. Square brackets hold non-standard residues; d marks the D form. Ends that are not written are not given here. cellulose = not defined here; βAla = NCCC(=O)O

Columns and labels:
Type in all cases: binding
Set-up in all cases: key: No binding of immunoglobulin for the defined peptide variant, detection negative: 0; Binding of immunoglobulin for the defined peptide variant, detection positive: +
[1] = system: serum albumin; assay: Cellulose-immobilized 13-mer peptide variants incubated with serum albumin (negative control), anti-human IgG-AP detection; details: blocking buffer without addition, 3 h room temperature
In short: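 Peptides on cellulose via a (βA)(βA) spacer were blocked in T-TBS (pH 8.0) with 5% saccharose and 4% BSA, then exposed for 3 h at room temperature to IgG-Fc (1 μg/ml), serum diluted 1:10,000, or blocking buffer alone. Bound IgG was detected with AP-anti-human IgG (1.2 μg/ml) and NBT/BCIP colour development.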

[2] = system: immunoglobulins in human plasma; assay: Cellulose-immobilized 13-mer peptide variants incubated with human plasma, anti-human IgG-AP detection; details: human plasma as sample, diluted 1:10,000 in blocking buffer, 3 h room temperature
In short: (§1)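 Read-out was colorimetric NBT/BCIP staining (developing buffer pH 9.5) after alkaline phosphatase-conjugated anti-human IgG at 1.2 μg/ml. Before this, the immobilized peptides had been incubated 3 h at room temperature with 1 μg/ml IgG-Fc, 1:10,000 diluted serum, or albumin-containing blocking buffer without addition.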

[3] = system: human IgG-Fc; assay: Cellulose-immobilized 13-mer peptide variants incubated with human IgG-Fc, anti-human IgG-AP detection; details: IgG-Fc 1 μg/ml in blocking buffer, 3 h room temperature
In short: as §1

Row | Result for incubation with serum albumin (immunoglobulin binding detection) [1] | Result for incubation with human plasma (immunoglobulin binding detection) [2] | Result for incubation with human IgG-Fc (immunoglobulin binding detection) [3] | Substance
1 | 0 | 0 | + | 06A: cellulose-bound 13-mer variant DCAWHAGELVWCT-(βA)(βA) (DCAWHAGELVWCT[βAla][βAla]; disulfide 2-12 (inferred); not fully specified (N-terminus); printed as DCAWHAGELVWCT-(βA)(βA); also: cellulose-bound)
2 | 0 | 0 | 0 | 06C: cellulose-bound 13-mer variant DCAWHCGELVWCT-(βA)(βA) (DCAWHCGELVWCT[βAla][βAla]; not fully specified (N-terminus); printed as DCAWHCGELVWCT-(βA)(βA); cysteine pairing not given here; also: cellulose-bound)
3 | 0 | 0 | + | 06D: cellulose-bound 13-mer variant DCAWHDGELVWCT-(βA)(βA) (DCAWHDGELVWCT[βAla][βAla]; disulfide 2-12 (inferred); not fully specified (N-terminus); printed as DCAWHDGELVWCT-(βA)(βA); also: cellulose-bound)
4 | 0 | 0 | + | 06E: cellulose-bound 13-mer variant DCAWHEGELVWCT-(βA)(βA) (DCAWHEGELVWCT[βAla][βAla]; disulfide 2-12 (inferred); not fully specified (N-terminus); printed as DCAWHEGELVWCT-(βA)(βA); also: cellulose-bound)
5 | 0 | 0 | 0 | 06F: cellulose-bound 13-mer variant DCAWHFGELVWCT-(βA)(βA) (DCAWHFGELVWCT[βAla][βAla]; disulfide 2-12 (inferred); not fully specified (N-terminus); printed as DCAWHFGELVWCT-(βA)(βA); also: cellulose-bound)
6 | 0 | + | + | 06G: cellulose-bound 13-mer variant DCAWHGGELVWCT-(βA)(βA) (DCAWHGGELVWCT[βAla][βAla]; disulfide 2-12 (inferred); not fully specified (N-terminus); printed as DCAWHGGELVWCT-(βA)(βA); also: cellulose-bound)
7 | 0 | + | + | 06H: cellulose-bound 13-mer variant DCAWHHGELVWCT-(βA)(βA) (DCAWHHGELVWCT-{βAla-βAla-cellulose}; disulfide 2-12 (inferred); not fully specified (N-terminus); printed as DCAWHHGELVWCT-(βA)(βA); reading uncertain)
8 | 0 | 0 | 0 | 06I: cellulose-bound 13-mer variant DCAWHIGELVWCT-(βA)(βA) (DCAWHIGELVWCT-{βAla-βAla-cellulose}; disulfide 2-12 (inferred); not fully specified (N-terminus); printed as DCAWHIGELVWCT-(βA)(βA); reading uncertain)
9 | 0 | + | + | 06K: cellulose-bound 13-mer variant DCAWHKGELVWCT-(βA)(βA) (DCAWHKGELVWCT-{βAla-βAla-cellulose}; disulfide 2-12 (inferred); not fully specified (N-terminus); printed as DCAWHKGELVWCT-(βA)(βA); reading uncertain)
10 | 0 | + | + | 06M: cellulose-bound 13-mer variant DCAWHMGELVWCT-(βA)(βA) (DCAWHMGELVWCT-{βAla-βAla-cellulose}; disulfide 2-12 (inferred); not fully specified (N-terminus); printed as DCAWHMGELVWCT-(βA)(βA); reading uncertain)
11 | 0 | + | + | 06N: cellulose-bound 13-mer variant DCAWHNGELVWCT-(βA)(βA) (DCAWHNGELVWCT-{βAla-βAla-cellulose}; disulfide 2-12 (inferred); not fully specified (N-terminus); printed as DCAWHNGELVWCT-(βA)(βA); reading uncertain)
12 | 0 | 0 | 0 | 06P: cellulose-bound 13-mer variant DCAWHPGELVWCT-(βA)(βA) (DCAWHPGELVWCT-{βAla-βAla-cellulose}; disulfide 2-12 (inferred); not fully specified (N-terminus); printed as DCAWHPGELVWCT-(βA)(βA); reading uncertain)
13 | 0 | + | + | 06Q: cellulose-bound 13-mer variant DCAWHQGELVWCT-(βA)(βA) (DCAWHQGELVWCT-{βAla-βAla-cellulose}; disulfide 2-12 (inferred); not fully specified (N-terminus); printed as DCAWHQGELVWCT-(βA)(βA); reading uncertain)
14 | 0 | + | + | 06R: cellulose-bound 13-mer variant DCAWHRGELVWCT-(βA)(βA) (DCAWHRGELVWCT-{βAla-βAla-cellulose}; disulfide 2-12 (inferred); not fully specified (N-terminus); printed as DCAWHRGELVWCT-(βA)(βA); reading uncertain)
15 | 0 | 0 | + | 06S: cellulose-bound 13-mer variant DCAWHSGELVWCT-(βA)(βA) (DCAWHSGELVWCT-{βAla-βAla-cellulose}; disulfide 2-12 (inferred); not fully specified (N-terminus); printed as DCAWHSGELVWCT-(βA)(βA); reading uncertain)
